Measurements as given in the Kinase Knowledgebase extract (Sharma et al. 2016).

How the values were obtained:
[1] = molecular target: PIK3CA (human) (UniProt P42336); experiment: Inhibition of PIK3CA Kinase Activity
[2] = molecular target: PIK3CD (Human) (UniProt O00329); experiment: Inhibition of PIK3CD Kinase Activity
[3] = molecular target: PIK3CG (human) (UniProt P48736); experiment: Inhibition of PIK3CG Kinase Activity
[4] = molecular target: PIK3CB (Human) (UniProt P42338); experiment: Inhibition of PIK3CB Kinase Activity
Chain of PIK3CB (Human) (P42338 whole entry, looked up): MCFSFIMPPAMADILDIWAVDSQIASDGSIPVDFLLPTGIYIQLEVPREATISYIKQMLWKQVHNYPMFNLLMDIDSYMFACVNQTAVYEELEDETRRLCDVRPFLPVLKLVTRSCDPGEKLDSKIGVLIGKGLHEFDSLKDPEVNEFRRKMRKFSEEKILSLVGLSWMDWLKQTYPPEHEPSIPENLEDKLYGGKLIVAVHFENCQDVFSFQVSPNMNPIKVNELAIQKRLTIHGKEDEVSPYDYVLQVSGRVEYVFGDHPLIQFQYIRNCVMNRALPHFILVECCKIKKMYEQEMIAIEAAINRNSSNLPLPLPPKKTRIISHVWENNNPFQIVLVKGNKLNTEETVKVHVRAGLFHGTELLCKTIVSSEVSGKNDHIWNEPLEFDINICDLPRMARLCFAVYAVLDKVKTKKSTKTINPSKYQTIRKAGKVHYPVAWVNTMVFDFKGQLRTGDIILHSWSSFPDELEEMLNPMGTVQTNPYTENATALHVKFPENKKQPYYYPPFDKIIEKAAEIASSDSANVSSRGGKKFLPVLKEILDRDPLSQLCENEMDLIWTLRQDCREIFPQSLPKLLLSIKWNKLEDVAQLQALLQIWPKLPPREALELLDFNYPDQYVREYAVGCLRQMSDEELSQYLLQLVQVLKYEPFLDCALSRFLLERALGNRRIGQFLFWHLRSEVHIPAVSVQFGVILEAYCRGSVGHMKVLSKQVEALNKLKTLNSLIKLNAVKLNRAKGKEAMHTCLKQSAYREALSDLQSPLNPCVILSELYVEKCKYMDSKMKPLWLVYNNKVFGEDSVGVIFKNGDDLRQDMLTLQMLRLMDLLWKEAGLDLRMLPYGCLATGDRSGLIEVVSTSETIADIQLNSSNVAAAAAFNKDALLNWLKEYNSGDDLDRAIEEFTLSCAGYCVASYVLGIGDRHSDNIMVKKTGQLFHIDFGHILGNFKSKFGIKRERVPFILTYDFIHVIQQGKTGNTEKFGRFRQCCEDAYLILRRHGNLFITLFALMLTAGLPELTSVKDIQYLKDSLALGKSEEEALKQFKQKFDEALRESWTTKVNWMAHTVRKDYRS

Chain of PIK3CA (human) (P42336 whole entry, looked up): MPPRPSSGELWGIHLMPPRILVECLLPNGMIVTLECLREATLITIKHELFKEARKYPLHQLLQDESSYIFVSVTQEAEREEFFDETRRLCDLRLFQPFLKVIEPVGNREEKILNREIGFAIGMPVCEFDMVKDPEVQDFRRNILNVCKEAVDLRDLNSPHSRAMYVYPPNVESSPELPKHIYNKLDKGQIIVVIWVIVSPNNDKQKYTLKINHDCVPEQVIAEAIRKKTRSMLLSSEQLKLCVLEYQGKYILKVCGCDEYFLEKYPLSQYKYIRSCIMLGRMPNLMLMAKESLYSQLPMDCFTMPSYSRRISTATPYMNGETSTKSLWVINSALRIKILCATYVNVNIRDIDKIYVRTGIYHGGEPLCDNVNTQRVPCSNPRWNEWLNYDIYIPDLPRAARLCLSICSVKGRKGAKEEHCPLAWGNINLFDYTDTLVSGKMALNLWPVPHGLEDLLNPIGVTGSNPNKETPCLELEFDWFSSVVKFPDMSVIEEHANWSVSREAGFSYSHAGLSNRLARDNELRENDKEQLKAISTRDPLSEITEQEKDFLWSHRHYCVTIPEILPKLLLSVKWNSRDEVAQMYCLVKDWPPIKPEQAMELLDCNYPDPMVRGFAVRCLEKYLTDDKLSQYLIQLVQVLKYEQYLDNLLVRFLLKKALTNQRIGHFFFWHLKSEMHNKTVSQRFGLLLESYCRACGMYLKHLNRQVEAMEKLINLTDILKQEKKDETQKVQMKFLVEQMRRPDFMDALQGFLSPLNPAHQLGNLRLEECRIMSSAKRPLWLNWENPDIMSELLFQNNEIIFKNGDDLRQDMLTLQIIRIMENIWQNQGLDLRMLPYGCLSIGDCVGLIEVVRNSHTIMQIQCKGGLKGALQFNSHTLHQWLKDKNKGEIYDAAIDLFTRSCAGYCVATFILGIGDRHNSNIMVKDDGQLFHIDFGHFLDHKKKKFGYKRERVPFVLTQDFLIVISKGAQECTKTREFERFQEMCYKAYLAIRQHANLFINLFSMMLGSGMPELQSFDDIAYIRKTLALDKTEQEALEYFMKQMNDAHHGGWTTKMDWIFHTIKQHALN
Chain of PIK3CD (Human) (O00329 whole entry, looked up): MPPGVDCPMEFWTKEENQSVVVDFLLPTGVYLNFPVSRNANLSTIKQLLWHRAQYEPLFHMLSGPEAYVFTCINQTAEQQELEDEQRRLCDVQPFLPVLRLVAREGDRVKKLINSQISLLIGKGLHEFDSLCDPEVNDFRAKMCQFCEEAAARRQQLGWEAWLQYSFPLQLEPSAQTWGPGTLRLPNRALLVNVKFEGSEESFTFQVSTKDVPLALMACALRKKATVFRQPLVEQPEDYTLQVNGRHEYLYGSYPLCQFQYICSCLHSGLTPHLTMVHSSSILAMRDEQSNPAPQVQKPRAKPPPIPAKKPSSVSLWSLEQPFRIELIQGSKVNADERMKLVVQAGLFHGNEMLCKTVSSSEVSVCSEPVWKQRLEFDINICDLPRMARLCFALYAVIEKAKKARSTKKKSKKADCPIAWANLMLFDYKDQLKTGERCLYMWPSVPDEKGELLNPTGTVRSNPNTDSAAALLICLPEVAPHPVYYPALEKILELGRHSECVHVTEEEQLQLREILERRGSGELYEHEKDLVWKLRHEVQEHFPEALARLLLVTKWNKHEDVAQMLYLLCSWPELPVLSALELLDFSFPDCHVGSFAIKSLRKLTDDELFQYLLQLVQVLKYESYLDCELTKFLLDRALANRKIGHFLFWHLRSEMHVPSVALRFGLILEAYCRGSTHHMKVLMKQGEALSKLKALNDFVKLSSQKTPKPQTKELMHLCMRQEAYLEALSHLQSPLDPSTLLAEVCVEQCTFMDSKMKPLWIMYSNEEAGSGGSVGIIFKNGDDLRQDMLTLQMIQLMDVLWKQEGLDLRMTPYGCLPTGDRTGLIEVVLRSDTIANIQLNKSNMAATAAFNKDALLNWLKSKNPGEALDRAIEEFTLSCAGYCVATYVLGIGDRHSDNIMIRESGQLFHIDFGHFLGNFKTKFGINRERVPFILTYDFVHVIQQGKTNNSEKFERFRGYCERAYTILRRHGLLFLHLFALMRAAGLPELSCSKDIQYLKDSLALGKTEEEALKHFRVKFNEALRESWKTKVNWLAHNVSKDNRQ
Chain of PIK3CG (human) (P48736 whole entry, looked up): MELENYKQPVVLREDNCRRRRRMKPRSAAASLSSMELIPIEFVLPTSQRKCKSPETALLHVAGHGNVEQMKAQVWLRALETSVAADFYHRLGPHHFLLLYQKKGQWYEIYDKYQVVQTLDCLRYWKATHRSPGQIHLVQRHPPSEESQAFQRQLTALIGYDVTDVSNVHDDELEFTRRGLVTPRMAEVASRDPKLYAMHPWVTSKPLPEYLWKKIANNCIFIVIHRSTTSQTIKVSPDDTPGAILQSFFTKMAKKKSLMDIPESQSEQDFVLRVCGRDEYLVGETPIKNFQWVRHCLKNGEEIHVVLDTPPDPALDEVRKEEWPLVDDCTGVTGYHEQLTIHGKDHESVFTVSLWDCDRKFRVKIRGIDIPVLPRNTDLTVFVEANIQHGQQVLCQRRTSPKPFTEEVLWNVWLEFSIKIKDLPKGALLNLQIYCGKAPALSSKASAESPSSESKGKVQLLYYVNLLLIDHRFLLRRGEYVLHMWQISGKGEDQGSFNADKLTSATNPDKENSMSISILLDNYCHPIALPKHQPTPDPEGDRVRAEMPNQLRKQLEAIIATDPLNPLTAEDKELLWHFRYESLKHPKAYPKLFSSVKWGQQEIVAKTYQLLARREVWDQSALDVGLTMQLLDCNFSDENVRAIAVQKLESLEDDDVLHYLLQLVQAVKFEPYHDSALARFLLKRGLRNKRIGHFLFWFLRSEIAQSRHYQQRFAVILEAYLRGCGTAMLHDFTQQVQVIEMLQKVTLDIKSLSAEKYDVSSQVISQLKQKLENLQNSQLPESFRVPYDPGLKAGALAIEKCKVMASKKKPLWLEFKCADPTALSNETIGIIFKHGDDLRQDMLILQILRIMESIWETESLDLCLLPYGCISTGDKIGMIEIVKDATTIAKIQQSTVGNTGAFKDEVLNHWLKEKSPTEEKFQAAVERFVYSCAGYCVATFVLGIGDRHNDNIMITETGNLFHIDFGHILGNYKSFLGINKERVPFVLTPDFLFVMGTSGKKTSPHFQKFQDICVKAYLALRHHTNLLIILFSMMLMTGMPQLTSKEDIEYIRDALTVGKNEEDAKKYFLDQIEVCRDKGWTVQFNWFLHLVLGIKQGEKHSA

## CC(=O)Nc1nc2ccc(-c3cccc(S(=O)(=O)NCCN4CCOCC4)c3)cc2s1
[1]
  IC50: < 1000 nM
[2]
  IC50: < 1000 nM
[3]
  IC50: < 1000 nM

## CC(=O)Nc1nc2ccc(-c3cccc(S(=O)(=O)N4CCCC(NC(=O)OC(C)(C)C)C4)c3)cc2s1 (centres undefined)
[1]
  IC50: < 1000 nM

## COc1cc(-c2ccc3nc(NC(=O)NCCc4nc(C(C)C)no4)sc3c2)ccc1O
[4]
  IC50: < 1000 nM

## CC(=O)Nc1nc2ccc(-c3cccc(S(=O)(=O)N(CCO)CCO)c3)cc2s1
[1]
  IC50: < 1000 nM
[2]
  IC50: < 1000 nM
[3]
  IC50: < 1000 nM

## CC(=S)Nc1cn2nc(-c3cccc(S(C)(=O)=O)c3)ccc2n1
[1]
  IC50: < 1000 nM
[2]
  IC50: < 1000 nM
[3]
  IC50: < 1000 nM

## COC(=O)c1cccc(-c2ccc3nc(NC(C)=O)sc3c2)c1
[3]
  IC50: > 20000 nM

## CS(=O)(=O)c1cccc(-c2ccc3nc(NC(=O)NCCc4noc(-c5ccccc5)n4)sc3c2)c1
[3]
  IC50: > 20000 nM

## CC(=O)Nc1nc2ccc(-c3cccc(C(=O)NCCO)c3)cc2s1
[4]
  IC50: > 20000 nM

## CN(C)C(=O)CNC(=O)Nc1nc2ccc(-c3cccc(S(C)(=O)=O)c3)cc2s1
[1]
  IC50: < 1000 nM
[2]
  IC50: < 1000 nM
[3]
  IC50: < 1000 nM

## CC(=O)Nc1nc2ccc(-c3cccc(S(=O)(=O)N4CCOCC4)c3)cc2s1
[1]
  IC50: < 1000 nM
[3]
  IC50: < 1000 nM

## CC(=O)Nc1nc2ccc(-c3cccc(S(=O)(=O)N(C)C)c3)cc2s1
[1]
  IC50: < 1000 nM
[3]
  IC50: < 1000 nM

## CS(=O)(=O)c1cccc(-c2ccc3nc(NC(=O)NCCC(=O)N4CCOCC4)sc3c2)c1
[4]
  IC50: < 1000 nM
[3]
  IC50: < 1000 nM

## CCC(=O)Nc1nc2ccc(-c3cccc(S(C)(=O)=O)c3)cc2s1
[2]
  IC50: < 1000 nM

## CC(=O)Nc1nc2ccc(-c3cncc(S(=O)(=O)N(C)C)c3)cc2s1
[1]
  IC50: < 1000 nM
[4]
  IC50: < 1000 nM
[2]
  IC50: < 1000 nM
[3]
  IC50: < 1000 nM

## CC(=O)Nc1nc2ccc(-c3cccc(S(=O)(=O)N(C)CCO)c3)cc2s1
[1]
  IC50: < 1000 nM
[4]
  IC50: < 1000 nM
[2]
  IC50: < 1000 nM
[3]
  IC50: < 1000 nM

## CC(=O)Nc1nc2ccc(-c3cccc(NS(C)(=O)=O)c3)cc2s1
[1]
  IC50: < 1000 nM
[2]
  IC50: < 1000 nM
[3]
  IC50: < 1000 nM

## CC(C)n1nnc(CCNC(=O)Nc2nc3ccc(-c4cccc(S(C)(=O)=O)c4)cc3s2)n1
[3]
  IC50: < 1000 nM

## CC(=O)Nc1nc2ccc(-c3cccc(S(=O)(=O)N4CCC(O)CC4)c3)cc2s1
[1]
  IC50: < 1000 nM
[2]
  IC50: < 1000 nM
[3]
  IC50: < 1000 nM

## CC(=O)Nc1nc2ccc(-c3cccc(S(=O)(=O)CCO)c3)cc2s1
[2]
  IC50: < 1000 nM
[3]
  IC50: < 1000 nM

## CC(=O)Nc1nc2ccc(-c3cccc(S(=O)(=O)N4CCCC(O)C4)c3)cc2s1 (centres undefined)
[1]
  IC50: < 1000 nM
[2]
  IC50: < 1000 nM
[3]
  IC50: < 1000 nM

## COCCNS(=O)(=O)c1cccc(-c2ccc3nc(NC(C)=O)sc3c2)c1
[1]
  IC50: < 1000 nM
[2]
  IC50: < 1000 nM
[3]
  IC50: < 1000 nM

## CC(=O)Nc1cn2cc(-c3cccc(S(C)(=O)=O)c3)ccc2n1
[1]
  IC50: < 1000 nM
[2]
  IC50: < 1000 nM

## CC(=O)Nc1nc2ccc(-c3cccc(S(=O)(=O)NCC(O)CO)c3)cc2s1 (centres undefined)
[1]
  IC50: < 1000 nM
[2]
  IC50: < 1000 nM
[3]
  IC50: < 1000 nM

## CC(=O)Nc1nc2ccc(-c3cccc(S(=O)(=O)NCCCO)c3)cc2s1
[1]
  IC50: < 1000 nM
[2]
  IC50: < 1000 nM
[3]
  IC50: < 1000 nM

## CC(=O)Nc1nc2ccc(-c3cccc(S(=O)(=O)NC(CO)CO)c3)cc2s1
[1]
  IC50: < 1000 nM
[2]
  IC50: < 1000 nM
[3]
  IC50: < 1000 nM

## CC(=O)Nc1nc2ccc(-c3ccc(C)c(S(C)(=O)=O)c3)cc2s1
[2]
  IC50: < 1000 nM

## CC(=O)Nc1nc2ccc(-c3ccc(O)c(F)c3)cc2s1
[3]
  IC50: < 1000 nM

## CC(=O)Nc1nc2ccc(-c3ccncc3)cc2s1
[3]
  IC50: < 1000 nM

## CC(C)c1noc(CCNC(=O)Nc2nc3ccc(-c4cccc(S(=O)(=O)N(C)C)c4)cc3s2)n1
[1]
  IC50: > 20000 nM

## CC(C)(C)OC(=O)CCNC(=O)Nc1nc2ccc(-c3cccc(S(=O)(=O)NCCO)c3)cc2s1
[4]
  IC50: < 1000 nM
[3]
  IC50: < 1000 nM

## COc1cc(-c2ccc3nc(NC(C)=O)sc3c2)ccc1O
[1]
  IC50: < 1000 nM
[4]
  IC50: < 1000 nM
[2]
  IC50: < 1000 nM
[3]
  IC50: < 1000 nM

## CC(=O)Nc1nc2ccc(-c3cccc(S(=O)(=O)NC4CCCOC4)c3)cc2s1 (centres undefined)
[1]
  IC50: < 1000 nM
[2]
  IC50: < 1000 nM
[3]
  IC50: < 1000 nM

## CC(=O)Nc1nc2ccc(-c3cccc(C(N)=O)c3)cc2s1
[3]
  IC50: < 1000 nM

## CS(=O)(=O)c1cccc(-c2ccc3nc(NC(=O)NCCC(=O)N4CCCC4)sc3c2)c1
[4]
  IC50: < 1000 nM
[2]
  IC50: < 1000 nM
[3]
  IC50: < 1000 nM

## COc1cc(-c2ccc3nc(NC(C)=O)cn3n2)ccc1O
[1]
  IC50: < 1000 nM
[4]
  IC50: < 1000 nM
[2]
  IC50: < 1000 nM
[3]
  IC50: < 1000 nM

## CC(=O)Nc1nc2ccc(-c3ccc(Cl)c(S(=O)(=O)NCCO)c3)cc2s1
[1]
  IC50: < 1000 nM
[2]
  IC50: < 1000 nM
[3]
  IC50: < 1000 nM

## CC(=O)Nc1nc2ccc(-c3cccc(S(=O)(=O)N4CCCC(N)C4)c3)cc2s1 (centres undefined)
[1]
  IC50: < 1000 nM
[4]
  IC50: < 1000 nM
[2]
  IC50: < 1000 nM
[3]
  IC50: < 1000 nM

## CCNS(=O)(=O)c1cccc(-c2ccc3nc(NC(C)=O)sc3c2)c1
[1]
  IC50: < 1000 nM
[2]
  IC50: < 1000 nM
[3]
  IC50: < 1000 nM

## CC(=O)Nc1nc2ccc(-c3cccc(S(N)(=O)=O)c3)cc2s1
[1]
  IC50: < 1000 nM
[2]
  IC50: < 1000 nM
[3]
  IC50: < 1000 nM

## CS(=O)(=O)c1cccc(-c2ccc3nc(NC=O)sc3c2)c1
[4]
  IC50: > 20000 nM

## CC(=O)Nc1nc2ccc(-c3cccc(S(=O)(=O)CCCO)c3)cc2s1
[1]
  IC50: < 1000 nM
[2]
  IC50: < 1000 nM

## CC(C)c1noc(CCNC(=O)Nc2nc3ccc(-c4cccc(S(=O)(=O)NCCO)c4)cc3s2)n1
[4]
  IC50: < 1000 nM
[3]
  IC50: < 1000 nM

## CN(C)S(=O)(=O)c1cccc(-c2ccc3nc(NC(=O)NCCC(=O)OC(C)(C)C)sc3c2)c1
[1]
  IC50: > 20000 nM
[4]
  IC50: < 1000 nM
[3]
  IC50: < 1000 nM

## CS(=O)(=O)c1cccc(-c2ccc3nc(NC(=O)C(=O)N4CCCC4)sc3c2)c1
[2]
  IC50: < 1000 nM

## CC(=O)Nc1nc2ccc(-c3cncc(S(N)(=O)=O)c3)cc2s1
[1]
  IC50: < 1000 nM
[4]
  IC50: < 1000 nM
[2]
  IC50: < 1000 nM
[3]
  IC50: < 1000 nM

## CC(=O)Nc1cn2nc(-c3cccc(S(=O)(=O)NCCO)c3)ccc2n1
[1]
  IC50: < 1000 nM
[2]
  IC50: < 1000 nM
[3]
  IC50: < 1000 nM

## CC(=O)Nc1nc2ccc(-c3cccc(S(=O)(=O)NC4CCCNC4)c3)cc2s1 (centres undefined)
[1]
  IC50: < 1000 nM
[2]
  IC50: < 1000 nM
[3]
  IC50: < 1000 nM

## CCOC(=O)CCNC(=O)Nc1nc2ccc(-c3cccc(S(C)(=O)=O)c3)cc2s1
[4]
  IC50: < 1000 nM
[3]
  IC50: < 1000 nM

## CC(=O)Nc1nc2ccc(-c3cccc(S(=O)(=O)N4CCN(C)C(=O)C4)c3)cc2s1
[1]
  IC50: < 1000 nM

## CC(=O)Nc1nc2ccc(-c3cccc(S(C)(=O)=O)c3)cc2s1
[1]
  IC50: < 1000 nM
[2]
  IC50: < 1000 nM
[3]
  IC50: < 1000 nM

## COc1cc(-c2ccc3nc(NC(=O)NCCC(=O)OC(C)(C)C)sc3c2)ccc1O
[3]
  IC50: < 1000 nM

## CC(=O)Nc1nc2ccc(-c3cccc(S(=O)(=O)NC4CCCN(C(=O)OC(C)(C)C)C4)c3)cc2s1 (centres undefined)
[1]
  IC50: < 1000 nM

## CC(=O)Nc1nc2ccc(-c3cccc(S(=O)(=O)NCCO)c3)cc2s1
[1]
  IC50: < 1000 nM
[4]
  IC50: < 1000 nM
[2]
  IC50: < 1000 nM
[3]
  IC50: < 1000 nM

## CC(C)(C)OCCCNC(=O)Nc1nc2ccc(-c3cccc(S(C)(=O)=O)c3)cc2s1
[1]
  IC50: > 20000 nM
[2]
  IC50: > 20000 nM

## CC(C)(C)OC(=O)CCNC(=O)Nc1nc2ccc(-c3cccc(S(C)(=O)=O)c3)cc2s1
[1]
  IC50: > 20000 nM
[4]
  IC50: < 1000 nM
[2]
  IC50: > 20000 nM
[3]
  IC50: < 1000 nM

## CC(=O)Nc1cn2nc(-c3cccc(S(C)(=O)=O)c3)ccc2n1
[1]
  IC50: < 1000 nM
[2]
  IC50: < 1000 nM
[3]
  IC50: < 1000 nM

## CC(=O)Nc1nc2ccc(-c3cc(C(F)(F)F)cc(S(=O)(=O)NCCO)c3)cc2s1
[1]
  IC50: > 20000 nM

## CC(=O)Nc1nc2ccc(-c3cccc(NS(=O)(=O)N(C)C)c3)cc2s1
[3]
  IC50: < 1000 nM

## COc1cc(-c2ccc3nc(NC(=O)NCC(=O)N4CCOCC4)sc3c2)ccc1O
[1]
  IC50: < 1000 nM
[4]
  IC50: < 1000 nM
[2]
  IC50: < 1000 nM
[3]
  IC50: < 1000 nM

## CC(=O)Nc1nc2ccc(-c3cccc(S(C)(=O)=O)n3)cc2s1
[1]
  IC50: < 1000 nM
[4]
  IC50: > 20000 nM
[2]
  IC50: < 1000 nM

## CS(=O)(=O)c1cccc(-c2ccc3nc(NC(=O)c4ccco4)sc3c2)c1
[1]
  IC50: > 20000 nM
[2]
  IC50: > 20000 nM

## COc1cccc(-c2ccc3nc(NC(C)=O)sc3c2)c1
[2]
  IC50: > 20000 nM

## CS(=O)(=O)c1cccc(-c2ccc3nc(NC(=O)NCC(=O)N4CCOCC4)sc3c2)c1
[1]
  IC50: < 1000 nM
[2]
  IC50: < 1000 nM
[3]
  IC50: < 1000 nM

## CC(C)n1cnc(CCNC(=O)Nc2nc3ccc(-c4cccc(S(C)(=O)=O)c4)cc3s2)c1
[4]
  IC50: < 1000 nM
[3]
  IC50: < 1000 nM
